Calls of active or inactive are those of the source. No cut-off for these calls is given here.

For test [1], the target named is Dual specificity protein kinase CLK2 (Homo sapiens) (UniProt P49760). Kind of test: Inhibition of human CLK2 assessed as residual activity at 1 uM using MBP as substrate by [gamma-33P]-ATP assay relative to control.
Test [2] addresses Serine/threonine-protein kinase Nek7 (Homo sapiens, UniProt Q8TDX7). Kind of test: Inhibition of human NEK7 assessed as residual activity at 1 uM using casein as substrate by [gamma-33P]-ATP assay relative to control.
Test [3] deals with Tyrosine-protein kinase HCK (Homo sapiens) (UniProt P08631). Kind of test: Inhibition of human HCK assessed as residual activity at 1 uM using KVEKIGEGTYGVVYK as substrate by [gamma-33P]-ATP assay relative to control.
Test [4] addresses Serine/threonine-protein kinase 16 (Homo sapiens) (UniProt O75716). Kind of test: Inhibition of human STK16 assessed as residual activity at 1 uM using MBP as substrate by [gamma-33P]-ATP assay relative to control.
Test [5] has as its target NUAK family SNF1-like kinase 1 (Homo sapiens) (UniProt O60285). The test can be described thus: Inhibition of human ARK5 assessed as residual activity at 1 uM using KKKVSRSGLYRSPSMPENLNRPR as substrate by [gamma-33P]-ATP assay relative to control.
In test [6] the target is Receptor-interacting serine/threonine-protein kinase 2 (Homo sapiens) (UniProt O43353). Kind of test: Inhibition of human RIPK2 assessed as residual activity at 1 uM using MBP as substrate by [gamma-33P]-ATP assay relative to control.
The target in test [7] is Maternal embryonic leucine zipper kinase (Homo sapiens) (UniProt Q14680). Kind of test: Inhibition of human MELK assessed as residual activity at 1 uM using KKLNRTLSFAEPG as substrate by [gamma-33P]-ATP assay relative to control.
In test [8] the target is Bone morphogenetic protein receptor type-2 (Homo sapiens) (UniProt Q13873). The test can be described thus: Inhibition of human BMPR2 assessed as residual activity at 1 uM using MBP as substrate by [gamma-33P]-ATP assay relative to control.
The target in test [9] is Serine/threonine-protein kinase pim-3 (Homo sapiens) (UniProt Q86V86). Kind of test: Inhibition of human PIM3 assessed as residual activity at 1 uM using RSRHSSYPAGT as substrate by [gamma-33P]-ATP assay relative to control.
For another test, the target named is TGF-beta receptor type-2 (Homo sapiens, UniProt P37173). Kind of test: Inhibition of human TGFBR2 assessed as residual activity at 1 uM using MBP as substrate by [gamma-33P]-ATP assay relative to control.
The target of test [10] is Mitogen-activated protein kinase kinase kinase 9 (Homo sapiens) (UniProt P80192). The test can be described thus: Inhibition of human MLK1 assessed as residual activity at 1 uM using casein as substrate by [gamma-33P]-ATP assay relative to control.
Test [11] has as its target Serine/threonine-protein kinase Nek11 (Homo sapiens) (UniProt Q8NG66). The test can be described thus: Inhibition of human NEK11 assessed as residual activity at 1 uM using MBP as substrate by [gamma-33P]-ATP assay relative to control.
In test [12] the target is Muscle, skeletal receptor tyrosine-protein kinase (Homo sapiens) (UniProt O15146). The test can be described thus: Inhibition of human MUSK assessed as residual activity at 1 uM using MBP as substrate by [gamma-33P]-ATP assay relative to control.
For test [13], the target named is Serine/threonine-protein kinase N1 (Homo sapiens) (UniProt Q16512). Kind of test: Inhibition of human PKN1 assessed as residual activity at 1 uM using KKLNRTLSVA as substrate by [gamma-33P]-ATP assay relative to control.
For test [14], the target named is Myosin light chain kinase (Homo sapiens) (UniProt Q32MK0). The test can be described thus: Inhibition of human MYLK3 assessed as residual activity at 1 uM using KKRPQRRYSNVF as substrate by [gamma-33P]-ATP assay relative to control.
The target of test [15] is Mitogen-activated protein kinase 15 (Homo sapiens) (UniProt Q8TD08). Kind of test: Inhibition of human ERK7 assessed as residual activity at 1 uM using MBP as substrate by [gamma-33P]-ATP assay relative to control.
Test [16] deals with T1, Serine/threonine-protein kinase Chk1 (Homo sapiens) (UniProt O14757).
T1 sequence (whole entry): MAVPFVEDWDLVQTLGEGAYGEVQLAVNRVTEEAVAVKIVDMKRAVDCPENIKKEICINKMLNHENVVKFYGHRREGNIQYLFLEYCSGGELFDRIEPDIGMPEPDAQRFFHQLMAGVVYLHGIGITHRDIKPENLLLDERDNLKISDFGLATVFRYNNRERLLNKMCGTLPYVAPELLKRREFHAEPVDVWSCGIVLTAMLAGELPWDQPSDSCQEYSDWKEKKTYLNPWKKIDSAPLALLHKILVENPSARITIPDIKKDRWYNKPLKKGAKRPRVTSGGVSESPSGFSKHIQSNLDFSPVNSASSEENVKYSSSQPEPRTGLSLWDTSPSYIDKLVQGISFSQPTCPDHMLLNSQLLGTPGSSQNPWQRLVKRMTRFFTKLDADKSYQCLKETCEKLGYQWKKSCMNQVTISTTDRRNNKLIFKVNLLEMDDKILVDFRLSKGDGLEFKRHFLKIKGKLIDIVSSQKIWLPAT
Kind of test: Inhibition of CHK1 phosphorylation at S345 residue in human HCT116 cells at 20 uM after 8 hrs by Western blot analysis. The test is classed as cell-based.

TGF-beta receptor type-2, sequence (P37173 whole entry): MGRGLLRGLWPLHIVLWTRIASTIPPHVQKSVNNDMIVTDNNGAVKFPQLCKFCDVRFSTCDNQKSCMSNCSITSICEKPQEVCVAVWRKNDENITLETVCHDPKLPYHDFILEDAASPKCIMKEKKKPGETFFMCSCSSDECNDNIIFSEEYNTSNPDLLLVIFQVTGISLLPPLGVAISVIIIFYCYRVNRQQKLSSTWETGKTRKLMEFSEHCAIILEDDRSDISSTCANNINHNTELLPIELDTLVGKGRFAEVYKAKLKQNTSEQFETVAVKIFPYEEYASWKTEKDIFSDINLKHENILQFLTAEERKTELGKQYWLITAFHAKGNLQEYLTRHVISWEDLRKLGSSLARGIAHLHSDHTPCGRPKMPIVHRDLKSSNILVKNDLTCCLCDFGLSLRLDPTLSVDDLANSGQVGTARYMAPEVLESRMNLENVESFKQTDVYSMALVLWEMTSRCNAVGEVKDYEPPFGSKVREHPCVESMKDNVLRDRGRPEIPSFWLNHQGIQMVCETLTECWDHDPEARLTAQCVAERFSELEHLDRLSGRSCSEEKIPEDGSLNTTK
Myosin light chain kinase (Homo sapiens), sequence (Q32MK0 whole entry): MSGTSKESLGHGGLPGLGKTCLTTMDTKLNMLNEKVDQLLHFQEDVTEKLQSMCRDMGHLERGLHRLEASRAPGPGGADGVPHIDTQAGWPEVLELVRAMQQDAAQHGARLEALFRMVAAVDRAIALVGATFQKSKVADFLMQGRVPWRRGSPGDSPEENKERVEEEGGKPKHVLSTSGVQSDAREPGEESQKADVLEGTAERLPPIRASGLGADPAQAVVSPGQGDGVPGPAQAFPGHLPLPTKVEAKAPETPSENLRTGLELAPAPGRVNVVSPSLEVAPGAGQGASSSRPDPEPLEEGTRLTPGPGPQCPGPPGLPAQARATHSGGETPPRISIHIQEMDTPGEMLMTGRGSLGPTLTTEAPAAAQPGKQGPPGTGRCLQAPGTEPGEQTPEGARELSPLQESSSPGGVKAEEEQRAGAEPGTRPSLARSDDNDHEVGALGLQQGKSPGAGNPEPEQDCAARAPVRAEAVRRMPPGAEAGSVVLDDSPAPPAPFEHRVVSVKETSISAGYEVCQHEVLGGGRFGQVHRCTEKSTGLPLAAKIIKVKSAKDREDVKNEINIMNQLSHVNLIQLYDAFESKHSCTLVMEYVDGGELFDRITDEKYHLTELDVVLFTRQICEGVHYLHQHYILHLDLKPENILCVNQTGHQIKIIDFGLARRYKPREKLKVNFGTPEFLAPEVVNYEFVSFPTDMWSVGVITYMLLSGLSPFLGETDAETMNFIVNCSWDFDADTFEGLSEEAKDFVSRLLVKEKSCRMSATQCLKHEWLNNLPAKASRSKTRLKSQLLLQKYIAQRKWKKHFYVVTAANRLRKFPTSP
Muscle, skeletal receptor tyrosine-protein kinase (Homo sapiens), sequence (O15146 whole entry): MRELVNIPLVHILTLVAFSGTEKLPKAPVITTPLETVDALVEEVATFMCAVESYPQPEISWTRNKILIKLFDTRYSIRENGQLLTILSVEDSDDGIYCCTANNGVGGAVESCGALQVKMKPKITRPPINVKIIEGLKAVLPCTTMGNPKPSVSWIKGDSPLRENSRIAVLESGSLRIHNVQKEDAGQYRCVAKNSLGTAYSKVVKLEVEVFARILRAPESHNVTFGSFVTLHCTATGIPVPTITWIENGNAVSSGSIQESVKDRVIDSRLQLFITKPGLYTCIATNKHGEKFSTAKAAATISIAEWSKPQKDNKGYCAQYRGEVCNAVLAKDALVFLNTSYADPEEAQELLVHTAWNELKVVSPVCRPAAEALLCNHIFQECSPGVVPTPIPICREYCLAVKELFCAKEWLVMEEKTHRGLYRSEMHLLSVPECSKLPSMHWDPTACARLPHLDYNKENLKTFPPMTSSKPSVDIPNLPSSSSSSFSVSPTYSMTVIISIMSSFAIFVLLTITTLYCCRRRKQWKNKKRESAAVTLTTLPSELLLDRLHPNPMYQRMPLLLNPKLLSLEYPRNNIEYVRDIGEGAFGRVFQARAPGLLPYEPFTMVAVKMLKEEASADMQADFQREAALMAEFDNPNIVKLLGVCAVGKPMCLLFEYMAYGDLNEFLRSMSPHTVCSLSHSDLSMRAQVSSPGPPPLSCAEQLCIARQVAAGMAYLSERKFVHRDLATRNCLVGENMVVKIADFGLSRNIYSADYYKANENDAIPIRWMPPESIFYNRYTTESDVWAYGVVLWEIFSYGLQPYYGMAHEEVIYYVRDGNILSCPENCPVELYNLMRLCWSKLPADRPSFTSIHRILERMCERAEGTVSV
Mitogen-activated protein kinase 15 (Homo sapiens), sequence (Q8TD08 whole entry): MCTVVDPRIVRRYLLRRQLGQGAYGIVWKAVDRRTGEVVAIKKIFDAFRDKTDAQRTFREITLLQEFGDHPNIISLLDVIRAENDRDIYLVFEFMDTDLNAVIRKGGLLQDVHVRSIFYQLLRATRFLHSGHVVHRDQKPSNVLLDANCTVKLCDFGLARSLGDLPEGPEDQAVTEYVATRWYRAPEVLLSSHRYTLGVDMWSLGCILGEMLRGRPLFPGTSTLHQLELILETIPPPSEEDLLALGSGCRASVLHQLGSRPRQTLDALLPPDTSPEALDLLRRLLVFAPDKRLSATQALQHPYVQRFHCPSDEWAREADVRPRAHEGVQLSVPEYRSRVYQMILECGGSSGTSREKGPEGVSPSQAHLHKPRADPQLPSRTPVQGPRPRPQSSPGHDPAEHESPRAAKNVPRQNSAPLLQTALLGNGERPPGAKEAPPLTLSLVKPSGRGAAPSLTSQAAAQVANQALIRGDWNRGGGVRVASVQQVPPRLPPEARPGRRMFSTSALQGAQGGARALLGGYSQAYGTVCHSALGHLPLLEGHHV
Mitogen-activated protein kinase kinase kinase 9 (Homo sapiens), sequence (P80192 whole entry, looked up): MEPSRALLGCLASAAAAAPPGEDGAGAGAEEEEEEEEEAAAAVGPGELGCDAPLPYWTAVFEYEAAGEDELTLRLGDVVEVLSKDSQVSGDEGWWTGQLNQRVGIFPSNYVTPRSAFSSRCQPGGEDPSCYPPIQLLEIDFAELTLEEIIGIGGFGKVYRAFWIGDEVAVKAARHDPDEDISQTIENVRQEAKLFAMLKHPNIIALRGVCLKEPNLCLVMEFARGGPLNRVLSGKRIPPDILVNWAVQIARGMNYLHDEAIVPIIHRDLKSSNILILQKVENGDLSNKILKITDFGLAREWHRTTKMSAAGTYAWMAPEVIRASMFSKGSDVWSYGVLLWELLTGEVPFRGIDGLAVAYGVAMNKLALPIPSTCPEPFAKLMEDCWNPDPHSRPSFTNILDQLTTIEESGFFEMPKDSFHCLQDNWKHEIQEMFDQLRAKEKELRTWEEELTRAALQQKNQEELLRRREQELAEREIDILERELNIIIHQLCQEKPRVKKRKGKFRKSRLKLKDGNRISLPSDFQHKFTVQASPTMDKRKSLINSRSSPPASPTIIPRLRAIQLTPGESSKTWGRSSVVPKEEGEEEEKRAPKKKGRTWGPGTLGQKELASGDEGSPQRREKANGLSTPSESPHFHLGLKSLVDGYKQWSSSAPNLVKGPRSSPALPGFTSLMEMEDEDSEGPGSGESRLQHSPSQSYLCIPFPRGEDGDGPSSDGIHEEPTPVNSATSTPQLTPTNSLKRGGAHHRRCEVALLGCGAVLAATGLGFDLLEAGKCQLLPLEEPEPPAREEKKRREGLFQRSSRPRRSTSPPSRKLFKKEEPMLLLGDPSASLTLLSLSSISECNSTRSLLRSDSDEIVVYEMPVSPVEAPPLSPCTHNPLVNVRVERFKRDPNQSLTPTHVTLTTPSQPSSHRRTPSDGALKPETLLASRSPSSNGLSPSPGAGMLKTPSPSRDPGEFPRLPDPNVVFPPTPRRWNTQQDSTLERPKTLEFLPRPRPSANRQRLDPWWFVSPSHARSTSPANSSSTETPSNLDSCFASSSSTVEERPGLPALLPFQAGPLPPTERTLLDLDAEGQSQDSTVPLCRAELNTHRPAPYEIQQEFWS
Maternal embryonic leucine zipper kinase (Homo sapiens), sequence (Q14680 whole entry, looked up): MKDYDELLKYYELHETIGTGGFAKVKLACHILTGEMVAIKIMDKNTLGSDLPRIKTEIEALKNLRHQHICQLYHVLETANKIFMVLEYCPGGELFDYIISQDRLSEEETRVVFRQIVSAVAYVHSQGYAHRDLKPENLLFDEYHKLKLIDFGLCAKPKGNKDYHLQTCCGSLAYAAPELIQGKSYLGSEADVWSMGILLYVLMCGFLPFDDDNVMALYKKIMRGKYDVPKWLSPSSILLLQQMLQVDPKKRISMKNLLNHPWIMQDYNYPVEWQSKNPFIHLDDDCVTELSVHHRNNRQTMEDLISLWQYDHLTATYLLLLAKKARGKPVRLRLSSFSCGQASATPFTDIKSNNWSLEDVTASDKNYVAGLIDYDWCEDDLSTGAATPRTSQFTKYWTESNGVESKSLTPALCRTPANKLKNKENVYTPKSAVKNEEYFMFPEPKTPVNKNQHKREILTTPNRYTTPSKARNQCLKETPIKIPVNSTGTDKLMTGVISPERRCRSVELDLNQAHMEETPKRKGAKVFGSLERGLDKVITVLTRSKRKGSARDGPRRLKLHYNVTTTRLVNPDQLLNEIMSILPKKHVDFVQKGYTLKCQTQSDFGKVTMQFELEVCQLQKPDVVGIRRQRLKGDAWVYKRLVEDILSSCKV
Dual specificity protein kinase CLK2 (Homo sapiens), sequence (P49760 whole entry, looked up): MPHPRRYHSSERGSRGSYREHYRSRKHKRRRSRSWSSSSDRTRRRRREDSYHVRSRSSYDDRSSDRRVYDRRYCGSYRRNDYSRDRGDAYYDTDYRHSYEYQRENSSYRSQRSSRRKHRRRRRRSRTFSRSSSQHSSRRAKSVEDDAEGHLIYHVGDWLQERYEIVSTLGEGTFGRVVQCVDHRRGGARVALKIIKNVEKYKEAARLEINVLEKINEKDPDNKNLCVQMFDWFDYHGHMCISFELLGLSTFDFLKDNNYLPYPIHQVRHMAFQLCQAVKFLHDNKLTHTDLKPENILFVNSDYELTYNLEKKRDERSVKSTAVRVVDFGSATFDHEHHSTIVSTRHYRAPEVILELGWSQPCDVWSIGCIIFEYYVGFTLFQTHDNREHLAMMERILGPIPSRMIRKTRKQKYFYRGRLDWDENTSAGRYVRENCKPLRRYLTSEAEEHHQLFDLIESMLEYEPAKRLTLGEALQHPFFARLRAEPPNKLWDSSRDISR

Turning to `ClC/C=C/C[N+]12CN3CN(CN(C3)C1)C2`, the Activity in [1] is 93.9 to 94.5%; in [2] it was 94.2 to 95.6%; in test [3] it was 93.1 to 95.5%; in test [4], 93.1 to 95.2%; in test [5] it was 87.9 to 94.8%; in test [6] it was 95.4 to 96.7%. Moreover, in test [7], the Activity was 93.8 to 96.1%.
As for `C(=C\c1ccccc1)/C[N+]12CN3CN(CN(C3)C1)C2`, the Activity in test [8] is 96.8 to 98.9%; in test [9], 104 to 107%; on TGF-beta receptor type-2 it was 111 to 119%; in test [10], 96.8%; in [11], 95 to 96.2%; in test [12], 89.6%. For the same compound, the results for the Activity in test [13], in test [14] and in test [15] were 87.8 to 90.1%, 92 to 96.4% and 95 to 96.7%, respectively. Further, in test [16], the inhibition entry is “inactive”.

The values above are taken from ChEMBL document CHEMBL4325871 (Eur J Med Chem, 2019).
